From PubChem BioAssay AID652228 (The Scripps Research Institute Molecular Screening Center, 2013)
Active and inactive are the calls of the source.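 Rule for the calls: active = protein phosphatase 1 activity cut by at least 70% at 50 µM; inactive = inhibition below 70%.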

Biological target: Serine/threonine-protein phosphatase PP1-alpha catalytic subunit (Homo sapiens) (UniProt P62136)
Assay: PP1alpha phosphatase inhibitors, histone substrate – biochemical, radiolabel, single concentration, powder samples, late-stage follow-up (AID 652228)
Settings: purified PP1alpha, 33P-phosphohistone dephosphorylation, scintillation; at 50 µM; stronger effect = higher value

Serine/threonine-protein phosphatase PP1-alpha catalytic subunit (Homo sapiens), sequence (P62136 whole entry, looked up): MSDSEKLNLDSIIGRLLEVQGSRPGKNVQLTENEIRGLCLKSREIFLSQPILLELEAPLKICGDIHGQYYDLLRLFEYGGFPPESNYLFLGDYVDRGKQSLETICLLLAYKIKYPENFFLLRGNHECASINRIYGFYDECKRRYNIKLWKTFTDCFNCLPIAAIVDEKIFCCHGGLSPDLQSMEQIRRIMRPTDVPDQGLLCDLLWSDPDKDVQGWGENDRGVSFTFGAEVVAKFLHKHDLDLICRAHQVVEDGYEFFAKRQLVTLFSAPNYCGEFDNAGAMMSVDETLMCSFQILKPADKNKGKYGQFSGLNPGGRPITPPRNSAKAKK

SMILES	inhibition
CCN1CCN(C(c2ccccn2)c2cc(Cl)c3cccnc3c2O)CC1 (stereo not given)	-51.6% (inactive)
CCOC(c1ccccn1)c1cc(Cl)c2cccnc2c1O (stereo not given)	15.6% (inactive)
Oc1c(C(c2ccccn2)N2CCNCC2)cc(Cl)c2cccnc12 (stereo not given)	59%
Oc1c(CN2CCN(c3ccccn3)CC2)cc(Cl)c2cccnc12	12.6% (inactive)
Oc1c(C(c2ccccn2)N2CCN(c3ccccc3F)CC2)cc(Cl)c2cccnc12 (stereo not given)	35.7%
CN1CCN(C(c2cccnc2)c2cc(Cl)c3cccnc3c2O)CC1 (stereo not given)	10% (inactive)
CC1CCN(C(c2ccccn2)c2cc(Cl)c3cccnc3c2O)CC1 (stereo not given)	43.2%
CN1CCN(C(c2ccncc2)c2cc(Cl)c3cccnc3c2O)CC1 (stereo not given)	4.17% (inactive)
CN1CCN(C(c2ccccn2)c2cc(Cl)ccc2O)CC1 (stereo not given)	2.44% (inactive)
CN1CCN(C(c2ccccn2)c2cc(Cl)c3ccccc3c2O)CC1 (stereo not given)	5.68% (inactive)
CC(C)(C)OC(=O)N1CCN(C(c2ccccn2)c2cc(Cl)c3cccnc3c2O)CC1 (stereo not given)	49.1%
CN1CCN(C(c2ccccc2)c2cc(Cl)c3cccnc3c2O)CC1 (stereo not given)	4.84% (inactive)
Oc1c(C(c2ccccn2)N2CCC(Cc3ccccc3)CC2)cc(Cl)c2cccnc12 (stereo not given)	57.4%
CN1CCN(C(c2ccccn2)c2cc(Cl)c3cccnc3c2O)CC1 (stereo not given)	-38.1% (inactive)
Oc1c(CN2CCN(c3ccccc3)CC2)cc(Cl)c2cccnc12	18.5% (inactive)
